PubChem BioAssay (NCI)
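In this assay, cells in 96-well plates receive the compound at five concentrations for 48 hours. Endpoints are linearly interpolated between the surrounding concentrations. Definition used: TGI = concentration required for complete inhibition of growth.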

Key:
Assay in all cases: NCI tumour cell line growth inhibition, 48 h
786-0 renal = tested on: 786-0 renal
LXFL 529 NSCLC = tested on: LXFL 529 NSCLC
M19-MEL melanoma = tested on: M19-MEL melanoma
RXF-631 renal = tested on: RXF-631 renal
SNB-78 CNS = tested on: SNB-78 CNS
HOP-18 NSCLC = tested on: HOP-18 NSCLC
P388 leukemia = tested on: P388 leukemia
P388/ADR leukemia = tested on: P388/ADR leukemia
SN12K1 renal = tested on: SN12K1 renal

Row | Structure (SMILES) | TGI (786-0 renal) [µM] | TGI (LXFL 529 NSCLC) [µM] | TGI (M19-MEL melanoma) [µM] | TGI (RXF-631 renal) [µM] | TGI (SNB-78 CNS) [µM] | TGI (HOP-18 NSCLC) [µM] | TGI (P388 leukemia) [µM] | TGI (P388/ADR leukemia) [µM] | TGI (SN12K1 renal) [µM]
1 | O=C1C(Cl)=C(N2CCN(C3=C(Cl)C(=O)c4ccccc4C3=O)CC2)C(=O)c2ccccc21 | 3.26 | 0.793 | 2.91 | 3.46 | 1.56 | – | – | – | –
2 | C#CCCCCC#Cc1ccccc1C(=O)OC | – | – | – | – | – | > 100 | – | – | –
3 | CC1=C(O)C(=O)[C@@H]2O[C@@H]2C1=O | – | – | 28.9 | – | 40.9 | 30.6 | 4.99 | 32.9 | 32.3
4 | COCCOCOc1ccc(OCc2ccccc2)cc1 | – | – | > 100 | – | > 100 | > 100 | 60.7 | 89.1 | > 100
5 | C/C(CCOC1CCCCO1)=C(\C)[Si](C)(C)C (configuration not stated) | – | > 100 | > 100 | – | > 100 | – | – | – | –
6 | CCCc1cc(=O)c2c(C)c3[nH]c4ccc(Cl)cc4c3c(C)c2[nH]1 | 3.08 | – | – | – | – | – | – | – | –
